In this test the target is cAMP-specific 3',5'-cyclic phosphodiesterase 4A (Homo sapiens, UniProt P27815). Nature of the test: PDE4A Inhibition Assay. The protocol: Inhibition of PDE4A was performed using IMAP technology (Molecular Devices, CA). PDE4A1A mixture was dispensed into 1536-well black/solid bottom assay plates (Greiner Bio-One North America, NC) using a Flying Reagent Dispenser (Aurora Discovery, CA). The plates were centrifuged at 1000 rpm for 30s and compound was transferred to the assay plate using a Kalypsys pin tool. After incubation, cAMP was dispensed into the plates to initiate the reaction. IMAP binding reagent was then added to the assay plate after the reaction.
cAMP-specific 3',5'-cyclic phosphodiesterase 4A, sequence (P27815 whole entry): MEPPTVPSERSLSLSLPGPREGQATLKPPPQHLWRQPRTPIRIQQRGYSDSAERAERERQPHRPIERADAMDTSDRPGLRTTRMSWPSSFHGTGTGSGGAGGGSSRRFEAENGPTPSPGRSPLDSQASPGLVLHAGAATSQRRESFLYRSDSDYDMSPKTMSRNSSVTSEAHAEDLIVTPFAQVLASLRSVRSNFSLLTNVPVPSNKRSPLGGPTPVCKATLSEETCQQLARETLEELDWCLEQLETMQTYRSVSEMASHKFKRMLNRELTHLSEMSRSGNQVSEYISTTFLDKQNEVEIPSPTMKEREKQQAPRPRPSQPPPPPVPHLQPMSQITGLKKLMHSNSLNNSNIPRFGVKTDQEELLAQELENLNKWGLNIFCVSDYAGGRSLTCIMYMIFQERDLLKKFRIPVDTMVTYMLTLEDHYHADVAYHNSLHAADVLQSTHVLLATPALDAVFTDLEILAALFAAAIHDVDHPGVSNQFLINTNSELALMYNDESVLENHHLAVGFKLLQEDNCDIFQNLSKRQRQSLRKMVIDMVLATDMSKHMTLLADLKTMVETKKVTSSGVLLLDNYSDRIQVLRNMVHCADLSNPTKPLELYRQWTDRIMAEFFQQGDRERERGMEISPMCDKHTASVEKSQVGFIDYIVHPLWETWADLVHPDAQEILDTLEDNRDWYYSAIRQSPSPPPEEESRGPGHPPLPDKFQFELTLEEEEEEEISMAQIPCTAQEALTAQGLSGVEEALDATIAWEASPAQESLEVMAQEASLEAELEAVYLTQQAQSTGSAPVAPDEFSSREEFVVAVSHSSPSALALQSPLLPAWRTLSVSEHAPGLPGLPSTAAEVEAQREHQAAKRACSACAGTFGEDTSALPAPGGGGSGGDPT

Molecules are shown by their SMILES.

As for `COc1cccc(OC)c1C1=Nn2c(nnc2-c2ccccc2O)SC1` [triazolothiadiazine, 11K], the concentration for half-maximal inhibition (IC50) is above 20 µM.

Usually IC50 stands for the concentration needed to halve the response being measured. A lower IC50 goes with inhibition by little substance.

The values above are taken from BindingDB's records for doi:10.1016/j.bmcl.2008.01.028 (Nih, 2008).
